Measurements taken from patent EP4818187A1, “COMPOUND AND USE THEREOF” (Ganzhou Hemay Pharmaceutical, Co., Ltd, priority 2023, dated 2025).

What was measured:
[1] = test system: HepG2 (human liver cancer cell); experiment: In vitro inhibitory effect against human tumor cells (SRB); format: cell-based; conditions: HepG2, 72 h, 3 days
Description: (§1) Cells were cultured with 5% CO2 at 37°C and saturated humidity until they reached a logarithmic growth phase (usually adherent cells were nearly fully confluent). After removing adherent cells by trypsin/EDTA digestion, the cells were collected for subsequent experiments.
(§2) The cells were inoculated into a 96-well cell culture plate (hereinafter referred to as the 96-well plate) based on the cell count shown in Table 2, cultured overnight to achieve cell adherence, and then, after different concentrations of the test compound were added, further cultured for a total of 3 days. Finally, the total cell protein in the assay wells was assayed by SRB, or the cell viability was assessed by MTT:
(§3) 2.1 Assaying total cell protein by SRB: the modification is based on the method in the literature (V. Vichai and K. Kirtikara. Sulforhodamine B colorimetric assay for cytotoxicity screening. Nature Protocols. 2006, 1: 1112-1116). Specific method: the culture medium was pipetted out from the wells, the cells were fixed with 10% trichloroacetic acid for more than 1 h, and trichloroacetic acid was removed; the cells were washed with H2O, and stained with 0.4% SRB for 15-30 min; after excess SRB was removed, the cells were washed with 1% acetic acid; 100 µl of 10 mM tris(trihydroxymethylaminomethane) was added to dissolve the protein-bound SRB, followed by assay at a wavelength of 570 nm.
(§4) 2.3: 1-2 mg of β-glucuronidase was weighed, and dissolved in PBS to prepare 2 mg/mL stock solution. Prior to use, the stock solution was diluted with a complete medium to prepare 12.5 µg/mL enzyme working solution. For assay wells requiring the enzyme, 80 µL of the enzyme working solution was added, with the β-glucuronidase at a concentration of 1 µg/well; and for assay wells not requiring the enzyme, 80 µL of the complete medium was added.
(§5) 1-3 mg of the test compound was weighed, and dissolved in DMSO to prepare 20 mM stock solution. The stock solution was diluted in a 3-fold gradient with DMSO, then diluted 100-fold with RPMI1640 basal medium to obtain 10× working solutions, with a total of 8 concentrations. 20 µL of the 10× working solutions were add to the assay wells, with the final volume of each well of 200 µL, and with the DMSO at a concentration of 0.1%.
(§6) 2.4 Calculation of inhibitory activity of compound: the experiment includes a compound test group, a compound-free positive solvent control group (PC), and a negative solvent control group (NC) without cells and the compound. Inhibition rate = [1−(testvalue−NCmean)/(PCmean−NCmean)] × 100% [formula]
(§7) The mean and SD of the inhibition rate were obtained from replicate assay wells. A curve was plotted with the compound concentrations distributed in a logarithmic form as the abscissa and with the mean inhibition rates as the ordinate, and was fitted with a 4-parameter logistic equation. The compound concentration corresponding to 50% inhibition rate on the curve is the IC50 value. Table 2: Culture medium formulation and cell inoculation concentration for human tumor cell lines

[2] = test system: A375 (human malignant melanoma); experiment: as above; format: cell-based; conditions: A-375, 72 h, 3 days
Description: as §1, §2, §3, §4, §5, §6, §7

[3] = test system: 22RV1 (human prostate cancer); experiment: as above; format: cell-based; conditions: 22Rv1, 72 h, 22RV1, SRB, 3 days
Description: as §1, §2, §3, §4, §5, §6, §7

[4] = test system: HCT116 (human colorectal cancer); experiment: In vitro inhibitory effect against human tumor cells (MTT); format: cell-based; conditions: HCT-116, 72 h, 3 days
Description: as §1, §2
(§8) 2.2 Assaying cell viability by MTT: the modification is based on the method in the literature (J. Carmichael, W. DeGraff, A. Gazdar et al., Evaluation of a tetrazolium-based semiautomated colorimetric assay: assessment of chemosensitivity testing. Cancer Research. 1987, 47: 936-942). Specific method: For well-adherent cells: the medium was pipetted out, 100 µL of a basal medium containing 0.5 mg/mL MTT (medium free of fetal bovine serum (FBS) and other additives) was added to each well, and culture was continued for additional 3 h. The MTT-containing basal medium was pipetted out, and 100 µL of DMSO was added to each well to dissolve formazan, followed by assay at a wavelength of 490 nm.
(§9) For poorly-adherent cells: MTT solution was directly added to a concentration of 0.5 mg/mL, culture was continued for additional 3 h, and an equal volume of triple solvent was added to the system to dissolve formazan, followed by assay at a wavelength of 570 nm.
as §4, §5, §6, §7

[5] = test system: NCI-H1975 (human non-small cell lung cancer); experiment: as above; format: cell-based; conditions: NCI-H1975, 72 h, 3 days
Description: as §1, §2, §8, §9, §4, §5, §6, §7

[6] = test system: Fadu (human pharyngeal squamous cell carcinoma); experiment: as above; format: cell-based; conditions: 72 h, 3 days
Description: as §1, §2, §8, §9, §4, §5, §6, §7

[7] = test system: SK-OV-3 (human ovarian cancer); experiment: as above; format: cell-based; conditions: SK-OV-3, 72 h, SK-OV-3, MTT, 3 days
Description: as §1, §2, §8, §9, §4, §5, §6, §7

[8] = test system: human non-small cell lung cancer NCI-H1975; experiment: Biological Example 7: in vivo xenograft model of human non-small cell lung cancer NCI-H1975; parameters: species or system Balb/c-nu nude mice; conditions: nude mice; for Final body weight change (%) / Maximum body weight change (%) / Relative volume RTV (x±S.D.) / T/C (%) / Tumor inhibition rate (%) / Tumor weight (g, x±S.D.): 0.8 mg/kg i.v. qw×3; for Body weight (g, x±S.D.) End: 0.8 mg/kg i.v. qw×3, End; for Body weight (g, x±S.D.) Start: 0.8 mg/kg i.v. qw×3, Start
[9] = test system: BxPC-3 (human pancreatic cancer in situ); experiment: In vitro inhibitory effect against human tumor cells (MTT or SRB); format: cell-based; conditions: BXPC-3, 72 h, BxPC-3, test method printed MTT (head: SRB), 3 days
Description: as §1, §2, §3, §8, §9, §4, §5, §6, §7

[10] = test system: human ovarian cancer SK-OV-3; experiment: Biological Example 5: in vivo xenograft model of human ovarian cancer SK-OV-3; parameters: species or system Balb/c-nu nude mice; conditions: SK-OV-3 xenograft, nude mice, 0.8 mg/kg i.v. qw×3
[11] = test system: human non-small cell lung cancer NCI-H1975; experiment: Biological Example 10: in vivo xenograft model of human non-small cell lung cancer NCI-H1975; parameters: species or system Balb/c-nu nude mice; conditions: nude mice
[12] = With addition of βGU (1 µg/well)

SMILES	IC50 [1, 12]	IC50 ([1]; βGU-free)	IC50 [2, 12]	IC50 ([2]; βGU-free)	IC50 [3, 12]	IC50 ([3]; βGU-free)	IC50 [4, 12]	IC50 ([4]; βGU-free)	IC50 [5, 12]	IC50 ([5]; βGU-free)	IC50 [6, 12]	IC50 ([6]; βGU-free)	IC50 [7, 12]	IC50 ([7]; βGU-free)	Final body weight change (%) [8]	Maximum body weight change (%) [8]	Relative volume RTV (x±S.D.) [8]	T/C (%) [8]	Tumor inhibition rate (%) [8]	Tumor weight (g, x±S.D.) [8]	also measured
CC[C@H](C)[C@@H]([C@@H](CC(=O)N1CCC[C@H]1[C@H](OC)[C@@H](C)C(=O)N[C@H](C)[C@@H](O)c1ccccc1)OC)N(C)C(=O)[C@@H](NC(=O)[C@H](C(C)C)[N+](C)(C)Cc1ccc(O[C@@H]2O[C@H](C(=O)[O-])[C@@H](O)[C@H](O)[C@H]2O)cc1OCc1cn(CCCOCC(=O)Nc2ccc(-c3ccc(/N=N/c4ccc5c(S(=O)(=O)[O-])cc(S(=O)(=O)[O-])c(N)c5c4O)c(C)c3)cc2C)nn1)C(C)C.[Na+].[Na+] [Example compound 10]	4.1 nM	93 nM	1.4 nM	33 nM	4.4 nM	94 nM	3.4 nM	87 nM	1.9 nM	50 nM	0.64 nM	14 nM	2.7 nM	74 nM	10.2%	10.2, d21%	0.66±0.23	4.6%	97.7%	0.041 ± 0.022 g	Body weight (g, x±S.D.) End [8]: 26.0 ± 1.0 g; Body weight (g, x±S.D.) Start [8]: 23.7 ± 1.3 g; IC50 [9, 12]: 0.71 nM; IC50 ([9]; βGU-free): 29 nM; Final body weight change (%) [10]: 4.3%; Maximum body weight change (%) [10]: 4.4, d18%; Relative volume RTV (x±S.D.) [10]: 0.37±0.73; T/C (%) [10]: 3.2%; Tumor inhibition rate (%) [10]: 97.9%; Tumor weight (g, x±S.D.) [10]: 0.035 ± 0.077 g; Body weight (g, x±S.D.) End [10]: 24.7 ± 0.9 g; Body weight (g, x±S.D.) Start [10]: 23.7 ± 1.1 g; Final body weight change (%) ([11]; 0.4 mg/kg i.v. qw×2): 4.6%; Maximum body weight change (%) ([11]; 0.4 mg/kg i.v. qw×2): 4.6, d28%; Relative volume RTV (x±S.D.) ([11]; 0.4 mg/kg i.v. qw×2): 0.26±0.02; T/C (%) ([11]; 0.4 mg/kg i.v. qw×2): 5.2%; Tumor inhibition rate (%) ([11]; 0.4 mg/kg i.v. qw×2): 95.7%; Tumor weight (g, x±S.D.) ([11]; 0.4 mg/kg i.v. qw×2): 0.047 ± 0.020 g; Body weight (g, x±S.D.) End 24d ([11]; 0.4 mg/kg i.v. qw×2, End 24d): 22.9 ± 0.8 g; Body weight (g, x±S.D.) Start ([11]; 0.4 mg/kg i.v. qw×2, Start): 21.9 ± 1.3 g
CC[C@H](C)[C@@H]([C@@H](CC(=O)N1CCC[C@H]1[C@H](OC)[C@@H](C)C(=O)N[C@H](C)[C@@H](O)c1ccccc1)OC)N(C)C(=O)[C@@H](NC(=O)[C@H](C(C)C)[N+](C)(CC)Cc1ccc(O[C@@H]2O[C@H](C(=O)[O-])[C@@H](O)[C@H](O)[C@H]2O)cc1OCc1cn(CCCOCC(=O)Nc2ccc(-c3ccc(/N=N/c4ccc5c(S(=O)(=O)[O-])cc(S(=O)(=O)[O-])c(N)c5c4O)c(C)c3)cc2C)nn1)C(C)C.[Na+].[Na+] (stereo partly drawn) [Example compound 11]	3 nM	66 nM	1.6 nM	45 nM	2.2 nM	63 nM	1.1 nM	55 nM	1.7 nM	64 nM	0.61 nM	21 nM	1.7 nM	77 nM	6.7%	6.7, d21%	0.74±0.51	5.2%	96.6%	0.061 ± 0.049 g	Body weight (g, x±S.D.) End [8]: 27.0 ± 2.2 g; Body weight (g, x±S.D.) Start [8]: 25.3 ± 1.6 g; IC50 [9, 12]: 0.4 nM; IC50 ([9]; βGU-free): 15 nM; Final body weight change (%) [10]: 5.7%; Maximum body weight change (%) [10]: 5.7, d21%; Relative volume RTV (x±S.D.) [10]: 0.19±0.23; T/C (%) [10]: 1.7%; Tumor inhibition rate (%) [10]: 99.3%; Tumor weight (g, x±S.D.) [10]: 0.011 ± 0.013 g; Body weight (g, x±S.D.) End [10]: 25.7 ± 0.8 g; Body weight (g, x±S.D.) Start [10]: 24.4 ± 0.9 g
